{"source": "patent EP0232089B1", "about": "“Quinone amides, their production and use” (Takeda Chemical Industries, Ltd., priority 1986, dated 1987)", "system": "Bronchoconstriction in guinea pigs induced by PAF", "test": "Platelet activating factor (PAF)-induced bronchoconstriction in guinea pigs (method of Konzett-Rossler)", "format": "in vivo", "conditions": "8 animals", "experimental": "Platelet activating factor (PAF)-induced bronchoconstriction in guinea pigs\nBronchoconstriction in guinea pigs induced by PAF (1 µg/kg, intravenous injection) was measured by the method of Konzett-Rossler. The following procedure was the same as that in leukotriene D4(LTD4)-induced bronchoconstriction. Test drugs were orally administered as a 5% gum arabic solution one hour before administration of PAF. Table 2 Inhibitory action against bronchoconstriction in guinea pigs", "key": {"[1]": {"conditions": "dose 5 mg/kg orally as 5% gum arabic solution one hour before PAF (1 µg/kg, intravenous injection)"}}, "note": "Marks after values point to notes of the source that are not given here."}
{"smiles": "CC1=C(C)C(=O)C(C(CCCCCC(=O)NC(Cc2ccccc2)C(=O)O)c2ccccc2)=C(C)C1=O", "note": "(centres unmarked) [Compound No. 30]", "values": [{"measurement": "% inhibition", "setting": "[1]", "result": "72.1* %"}]}
{"smiles": "CC1=C(C)C(=O)C(C(CCCCCC(N)=O)c2ccccc2)=C(C)C1=O", "note": "(centres unmarked) [Compound No. 1, 7-(3,5,6-trimethyl-1,4-benzoquinon-2-yl)-7-phenylheptanamide]", "values": [{"measurement": "% inhibition", "setting": "dose 0.313 mg/kg orally as 5% gum arabic solution one hour before PAF (1 µg/kg, intravenous injection)", "result": "49.7* %"}, {"measurement": "% inhibition", "setting": "dose 1.25 mg/kg orally as 5% gum arabic solution one hour before PAF (1 µg/kg, intravenous injection)", "result": "80.3** %"}, {"measurement": "% inhibition", "setting": "[1]", "result": "100.0** %"}]}
{"smiles": "CC1=C(C)C(=O)C(C(CCCCCC(=O)N2CCN(CCc3ccccc3)CC2)c2ccccc2)=C(C)C1=O", "note": "(racemic) [Compound No. 18, 7-(3,5,6-trimethyl-1 ,4-benzoquinon-2-yl)-7-phenylheptanoic acid 4-(2-phenylethyl)-piperazinamide]", "values": [{"measurement": "% inhibition", "setting": "[1]", "result": "59.9* %"}]}
